From US20220409601A1, “COMBINATION CANNABINOID-NAD+ PRECURSOR FORMULATION FOR TREATMENT OF INFLAMMATION AND METHODS RELATED THERETO” (priority 2019, published 2022)
Read-outs that look alike come from different tables or passages of the source.

What was measured:
chondrocytes (C-28/I2) = test: toxicity screen, maximum tolerable concentration in chondrocytes
Description: (§1) A clonal derivative of ATCC-certified normal chondrocytes was used for a study to determine cytokine expression. The parent line was originally derived from costal cartilage of adolescent […]. The cell line used is C-28/I2 accession number CVCL 0187. The cells were immortalized via retroviral vector-mediated SV40 Large T antigen expression. Cells were confirmed negative for mycoplasma contamination and genotyped by STR analysis to verify cell identity. This cell line is widely used as a model for studying normal and pathological cartilage repair mechanisms and inflammation.
(§2) The cells were cultured at 37° C. with 5% CO2, DMEM/F12 media supplemented with 10% heat-inactivated fetal bovine serum. Antimicrobials were not added to the media. Cells were maintained between 40 and 80% confluency to avoid terminal differentiation. Cells used for the experiments had been passaged no more than ten times prior to each experiment.
A series of pilot studies were performed to design the final full-scale experiment. First, a toxicity screen for each test compound was performed to establishment maximum tolerable concentrations in this model system. Second, assays were run to establish the optimal means of inducing a pro-inflammatory state in the cell culture system. Third, conditions were tested to set the most favorable dilution scheme in order to maintain samples within the linear range of detection for each analyte. To establish the test concentrations for each test compound, chondrocytes were treated with a serial dilution of each compound, for 24 and 48 hours under serum free conditions. Oleocanthal or CBD were tested at two-fold dilutions down from 50 micromolar (μM).

GM-CSF = settings: IL1β 10 ng/ml, 24 hours, no serum
Description: as §1, §2

[1] = 24 hours post-treatment, serum free, chondrocytes, microscopy (vacuolation, blebbing, reduced cell count), unit not given
[2] = High level (CBD 6.00 μM, niacin 900 μM), FIG. 1, 2C
[3] = Moderate level (CBD 2.00 μM, niacin 300 μM), FIG. 1, 2B

Structure (SMILES) | maximum tolerable concentration (chondrocytes (C-28/I2); [1]) | effect on GM-CSF expression (GM-CSF; [2]) | effect on GM-CSF expression (GM-CSF; [3]) | maximum tolerable concentration (chondrocytes (C-28/I2); human, 24 h)
C/C=C(/C=O)[C@@H](CC=O)CC(=O)OCCc1ccc(O)cc1 [oleocanthal] | 604 |  |  | 
C=C(C)[C@@H]1CCC(C)=C[C@H]1c1c(O)cc(CCCCC)cc1O [CBD, cannabidiol] | 604 | This effect was not seen | This effect was not seen | 
O=C(O)c1cccnc1 [niacin, nicotinic acid] |  | This effect was not seen | This effect was not seen | 1 mM
